Data as given in patent US8623909B2, “Prophylactic/therapeutic agents for lifestyle-related diseases” (priority 2008, dated 2014).
Marks after values point to notes of the source that are not given here.

How the values were obtained:
SREBP-1c mRNA = SREBP-1c mRNA level in liver and visceral fat of ORX rats; assay type: in vivo, rat
Excerpt: (§1) After housing the animals, the animals were anesthetized with ether, and underwent bilateral orchiectomy (orchiectomized rats: ORX) or a sham treatment. After awaking from the anesthesia, the animals were assigned to test groups of 3 to 5 animals each. […] After 21 days, the rats were sacrificed by exsanguination from the abdominal artery, the ventral prostates and anal levator muscle were excised and weighed followed by immersing in RNAlater (Nacalai Tesque) for extraction of RNA. In addition, soft tissue was removed from the right femur, and immersed in 75% ethanol followed by storage for subsequent measurement of the bone mineral density. Moreover, liver and visceral fat tissue were collected and immersed in RNAlater for RNA extraction.
(§2) Total RNA in various tissues of the ORX rats was isolated using the RNeasy Mini Kit or RNeasy Fibrous Tissue Mini Kit (Qiagen). 1 μg of this total RNA was subjected to reverse transcription using the QuantiaTect Reverse Transcription Kit (Qiagen). Next, cDNA was subjected to real-time PCR analysis using LightCycler (Roche Diagnostics) and each of the transcription products was quantified. Furthermore, PCR was carried out in 20 μl of a reaction mixture under the following conditions using SYBR Premix Ex Taq (Takara Biotechnology): 50 cycles consisting of denaturation for 5 seconds at 95° C., annealing for 20 seconds at 60° C. and elongation for 25 seconds at 72° C. In addition, glyceraldehyde-3-phosphate dehydrogenase (GAPDH) mRNA was simultaneously amplified as an internal standard, and the real-time PCR value of each transcription product were calculated as a relative value based on GAPDH.
(§3) In addition, mRNA levels of insulin receptor substrate 2 (IRS-2) in the liver were also measured.

UCP-1 mRNA = UCP-1 mRNA level in visceral fat of ORX rats; assay type: in vivo, rat; details: for UCP-1 mRNA/GAPDH mRNA level in rat visceral fat: solvent 1.0, sham 1.0
Experimental: (§4) 11-week-old, male Sprague-Dawley (SD) rats (320 to 340 g, purchased from Charles River Japan) were housed for 1 week in a room maintained at a light-dark cycle of 12 hours per day and controlled at a set temperature and humidity while allowing free access to a commercially available standard rodent diet and water.
(§5) After housing the animals, the animals were anesthetized with ether, and underwent bilateral orchiectomy (orchiectomized rats: ORX) or a sham treatment. After awaking from the anesthesia, the animals were assigned to test groups of 3 to 5 animals each. Starting on the day after surgery, the animals were subcutaneously injected once a day with an injection solution of the test compound (prepared by dissolving the test compound in a small amount of DMSO and diluting with olive oil for animal testing (consisting of 95% olive oil and 5% DMSO)) at the rate of 0.1 ml/100 g of body weight. After 21 days, the rats were sacrificed by exsanguination from the abdominal artery, the ventral prostates and anal levator muscle were excised and weighed followed by immersing in RNAlater (Nacalai Tesque) for extraction of RNA. In addition, soft tissue was removed from the right femur, and immersed in 75% ethanol followed by storage for subsequent measurement of the bone mineral density. Moreover, liver and visceral fat tissue were collected and immersed in RNAlater for RNA extraction.
as §2
Thus, UCP-1 mRNA levels in rat visceral fat were also measured for the purpose of confirmation.

FAS mRNA = FAS mRNA level in liver and visceral fat of ORX rats; assay type: in vivo, rat
Excerpt: as §1, §2, §3

PSA mRNA = PSA mRNA expression level in ORX rat prostates; assay type: in vivo; details: ORX rats; for PSA mRNA/GAPDH mRNA in prostates: 21 days, solvent 1.0, sham 114.4
Excerpt: as §1, §2
The PSA mRNA expression levels in the prostates of the ORX rats obtained in the aforementioned section (4)-1) were measured according to the method of section (4)-3).

PSA promoter = assay: PSA promoter-luciferase activity in LNCaP cells (dual-luciferase reporter); assay type: cell-based, human
Experimental: Plasmid pCMV-hAR was constructed based on a method previously reported by the inventors of the present invention (J. Biol. Chem., 282, 7329-7338). In addition, reporter plasmids consisting of PGL3-PSA (human) and PGL3-UCP-1 (mouse) were also constructed based on a method previously reported by the inventors of the present invention (Diabetes, 54, 1000-1008). Furthermore, pRL-SV40 was acquired commercially.
NIH-3T30-L1 mouse preadipocytes were cultured in Dulbecco's modified Eagle's medium (Sera Laboratories) containing 10% fetal calf serum. In addition, cells of human prostate cancer cell line LNCap were cultured in RPMI 1640 medium (Sigma) containing 10% fetal calf serum. Furthermore, these two types of cell lines were obtained from the American Type Culture Collection (Manassas).
The NIH-3T3-L1 cells of 2) above were co-transfected with pCMV-hAR, pRL-SV40 and PGL3-UCP-1 (mouse) in a 24-well plate using an Effectene Transfection Kit (Qiagen) and a Fugene HD Kit (Roche Diagnostics). In addition, the LNCaP cells of 2) above were similarly co-transfected with pCMV-hAR, pRL-SV40 and PGL3-PSA (human).
4) Measurement of Effect on PSA Promoter-Luciferase Activity in LNCaP Cells
The LNCaP cells co-transfected in 3) above were cultured for 24 hours in DMEM or RPMI 1640 containing 10% fetal calf serum treated with dextran-charcoal and a test compound (dissolved in a small amount of DMSO) 24 hours after transfection. Subsequently, the activities of firefly luciferase and Renilla luciferase were assayed in a 24-well plate using the Dual-Luciferase Reporter Assay System (Promega) in accordance with the protocol of Minilumat LB9507 (Berthold Technologies). Furthermore, the value of firefly luciferase activity were normalized based on the internal Renilla control, and were presented as relative luciferase activity.

ORX rats [1] = assay: Plasma triglyceride level in ORX rats; assay type: in vivo, rat; details: for Plasma triglyceride concentration: solvent 130.7, sham 236.5; for Effect on triglyceride levels (in words): 1 and 10 mg/Kg
Excerpt: as §1
Plasma triglyceride and cholesterol levels were measured to characterize the metabolic profiles of ORX rats treated in the aforementioned section (4)-1).

ORX rats [2] = assay: Prostate weight in ORX rats (virilization effect); assay type: in vivo, rat; details: for Prostate weight: 21 days, solvent 10.2, sham 132.5; for Change in prostate weight (in words): doses of 1 to 10 mg/kg body weight
Experimental: The virilization effect of compounds was studied by using the changes in prostate weight during administration of the compounds to ORX rats as an indicator of virilization effect.
as §4, §5

IRS-2 mRNA = IRS-2 mRNA level in liver of ORX rats; assay type: in vivo, rat; details: for IRS-2 mRNA/GAPDH mRNA level in rat liver: solvent 4.8, sham 1.0
Excerpt: as §1, §2, §3

[3] = liver, 1 mg/Kg, solvent 0.7, sham 1.0
[4] = liver, 10 mg/Kg, solvent 0.7, sham 1.0
[5] = visceral fat, 1 mg/Kg, solvent 1.0, sham 1.0
[6] = visceral fat, 10 mg/Kg, solvent 1.0, sham 1.0
[7] = liver, 1 mg/Kg, solvent 0.9, sham 1.0
[8] = liver, 10 mg/Kg, solvent 0.9, sham 1.0
[9] = visceral fat, 1 mg/Kg, solvent 0.5, sham 1.0
[10] = visceral fat, 10 mg/Kg, solvent 0.5, sham 1.0

SMILES | SREBP-1c mRNA/GAPDH mRNA level (SREBP-1c mRNA; [3]) | SREBP-1c mRNA/GAPDH mRNA level (SREBP-1c mRNA; [4]) | SREBP-1c mRNA/GAPDH mRNA level (SREBP-1c mRNA; [5]) | SREBP-1c mRNA/GAPDH mRNA level (SREBP-1c mRNA; [6]) | Effect on visceral fat UCP-1 mRNA levels (in words) (UCP-1 mRNA) | UCP-1 mRNA/GAPDH mRNA level in rat visceral fat (UCP-1 mRNA; 1 mg/Kg) | UCP-1 mRNA/GAPDH mRNA level in rat visceral fat (UCP-1 mRNA; 10 mg/Kg) | FAS mRNA/GAPDH mRNA level (FAS mRNA; [7]) | FAS mRNA/GAPDH mRNA level (FAS mRNA; [8]) | FAS mRNA/GAPDH mRNA level (FAS mRNA; [9]) | FAS mRNA/GAPDH mRNA level (FAS mRNA; [10]) | PSA mRNA/GAPDH mRNA in prostates (PSA mRNA; 1 mg/Kg s.c. once a day) | PSA mRNA/GAPDH mRNA in prostates (PSA mRNA; 10 mg/Kg s.c. once a day) | Effect on triglyceride levels (in words) (ORX rats [1]) | Prostate weight (ORX rats [2]; 1 mg/Kg s.c. once a day) | Prostate weight (ORX rats [2]; 10 mg/Kg s.c. once a day) | Change in prostate weight (in words) (ORX rats [2]) | Effect on liver IRS-2 mRNA level (in words) (IRS-2 mRNA) | IRS-2 mRNA/GAPDH mRNA level in rat liver (IRS-2 mRNA; 1 mg/Kg) | IRS-2 mRNA/GAPDH mRNA level in rat liver (IRS-2 mRNA; 10 mg/Kg) | other results
CC(=O)[C@H]1CCC2C3CCc4c(C)cccc4C3CC[C@@]21C (stereo partly drawn) [Compound of formula (Ia)] | 0.8 | 0.6 | 0.8 | 0.5 | this increase was not significant | 1.7 | 1.5 | 0.7 | 0.5 | 0.3* | 0.6 | 1.0** | 1.2** | lowered triglyceride levels considerably | 11.1** mg/100 g of body weight | 13.3** mg/100 g of body weight | did not increase | increased | 10.6** | 8.8* | SREBP-1c mRNA levels (in words) (SREBP-1c mRNA; liver and visceral fat): lower in both tissues; FAS mRNA levels (in words) (FAS mRNA; liver and visceral fat): also lower; Change in prostate PSA mRNA levels (in words) (PSA mRNA; 1 and 10 mg/Kg): no changes observed; Value of luciferase transcription activity (PSA promoter, relative luciferase activity) (PSA promoter; 10^−5M, 24 hours, control (DMSO) 1.0): 1.3; Plasma triglyceride concentration (ORX rats [1]; 1 mg/Kg): 41.3** mg/dL; Plasma triglyceride concentration (ORX rats [1]; 10 mg/Kg): 39.3** mg/dL
C[C@]12CCC(=O)C[C@@H]1CC[C@@H]1[C@@H]2CC[C@]2(C)[C@@H](O)CC[C@@H]12 [Dihydrotestosterone, 5α-dihydrotestosterone, reference compound] | 3.4 | 3.2 | 1.8 | 2.2 | had hardly any effect on UCP-1 mRNA levels | 0.8 | 0.9 | 8.0 | 7.1 | 2.3 | 3.5*^,# | 211.4**^,## | 209.8**^,## | raised triglyceride levels | 168.6**^,## mg/100 g of body weight | 216.9*^,## mg/100 g of body weight | increased dose-dependently | decreased | 5.1 | 0.8 | Increase of prostate PSA mRNA level in comparison with the sham treatment group (PSA mRNA; 1 and 10 mg/Kg): about 1.8 fold; PSA promoter activity stimulation (PSA promoter; 10^−7 M or 10^−8 M): roughly 9 fold
